# Like-named read-outs stand apart in the source and are kept apart here.
# Experiments:
# [1] = target: T1, FKBPwt (Homo sapiens, UniProt P62942); experiment: Competitive fluorescence polarization (FP) binding assay of rapalogs to FKBP; conditions: for fold loss in affinity (cf rapamycin): =IC50/IC50 of rapamycin; for IC50: read-out: FKBPwt FP binding assay IC50
# T1 construct: made in house
# Experimental: Serial 10-fold dilutions of each analog were prepared in 100% ethanol in glass vials and stored on ice. All other manipulations were performed at room temperature. […] Finally, a probe solution was prepared containing 10 nM AP1491 in 0.1% ethanol/FP buffer, and 100 μl added to each well with mixing.
# The plates were stored covered in the dark for approximately 30 min to permit equilibration and then the fluorescence polarization of the sample in each well read on a Jolley FPM-2 FP plate reader (Jolley Consulting and Research, Inc., Grayslake, Ill.) in accordance with the manufacturer's recommendations. The mean polarization (mP units)
# for each competitor concentration was usually converted to % total binding by reference to the control values and plotted (y) vs. log molar final concentration of competitor (x). Non-linear least square analysis was used to fit the curve and extract the IC50 using the following equation:
# y=M1+(M4−M1)/(1+exp(M2*(M3−x)))
# where M3 is the IC50. For incomplete curves the IC50 was determined by interpolation.
# [2] = system: HT1080 cells expressing M30 / M31 (FRAP-FKBP-Fas) constructs; experiment: Rapamycin-regulated apoptosis of stably transfected HT1080 cells; assay type: cell-based, human; conditions: with 50 ng/ml actinomycin D, about 20 hours, alamar blue
# Excerpt: (f) Rapamycin-regulated apoptosis of stable transsfected human HT1080 cells in culture XbaI-BamHI fragments from constructs A30 and A31 (d, table 1) were cloned into pCM to generate M30 and M31, constructs that direct the expression of MT5FasSE and MT6FasSE, where M denotes a myristoylation domain (see this example sections A.1. and A.8.) and other abbreviations are as described in d, table 1. EcoRI-BamHI fragments containing these expression cassettes were then cloned into the retroviral vector pSMN3 (Example 7). […] HT1080 cells were infected with viral stock and selected with G418.
# The media was removed and replaced with 100 μl of media containing 10% alamar blue dye. Plates were incubated as before, and the extent of cell viability assessed periodically by spectrophotometric determination of OD at 570 nm and 600 nm on a microtiter plate reader. Typically reading was continued until control (untreated) wells are at OD 0.2-0.4 after subtraction of blank.
# [3] = system: transfected HT1080 cells (hGH target gene) transplanted into nu/nu mice; experiment: Rapamycin-dependent production of hGH in mice; assay type: in vivo
# Excerpt: In Vivo Methods: Animals, husbandry, and general procedures. Male nu/nu mice were obtained from Charles River Laboratories (Wilmington, Mass.) and allowed to acclimate for five days prior to experimentation. They were housed under sterile conditions, were allowed free access to sterile food and sterile water throughout the entire experiment, and were handled with sterile techniques throughout.
# To transplant transiently transfected cells into mice, 2×10^6 transfected HT1080 cells, were suspended in […] PBS/0.1% BSA/0.1% glucose buffer, and administered into four intramuscular sites (approximately […] per site) on the haunches and flanks of the animals. Control mice received equivalent volume injections of buffer alone.
# The accuracy of the dosing solutions was confirmed by HPLC analysis prior to intravenous administration into the tail veins. […] In addition, other control mice, bearing transfected cells, received only the rapamycin vehicle.
# Blood was collected by either anesthetizing or sacrificing mice via CO2 inhalation. Anesthetized mice were used to collect […] of blood by cardiac puncture. The mice were revived and allowed to recover for subsequent blood collections. Sacrificed mice were immediately exsanguinated. Blood samples were allowed to clot for 24 hours, at 4° C., and sera were collected following centrifugation at 1000×g for 15 minutes. Serum hGH was measured by the Boehringer Mannheim non-isotopic sandwich ELISA (Cat No. 1 585 878). […] Recommended assay instructions were followed.
# Mice were administered transfected HT1080 cells as described above. […] The four remaining doses were given under anesthesia, immediately subsequent to blood collection, at 16, 32, 48, and 64 hours. […] Experimental animals and their control counterparts were each assigned to one of two groups. Each of the two experimental groups and two control groups received identical drug or vehicle treatments, respectively. The groups differed in that blood collection times were alternated between the two groups to reduce the frequency of blood collection for each animal.
# [4] = Rapamycin pharmacokinetics in mice; assay type: in vivo
# T1 sequence (P62942 whole entry): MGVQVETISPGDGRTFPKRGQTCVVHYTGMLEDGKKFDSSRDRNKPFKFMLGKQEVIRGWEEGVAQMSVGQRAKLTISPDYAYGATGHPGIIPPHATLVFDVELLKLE
compound,measurement,setting,value
CO[C@@H]1C[C@H](C[C@@H](C)[C@@H]2CC(=O)[C@H](C)/C=C(\C)[C@@H](O)[C@@H](OC)C(=O)[C@H](C)C[C@H](C)/C=C/C=C/C=C(\C)[C@@H](c3ccc(C(C)(C)C)s3)C[C@@H]3CC[C@@H](C)[C@@](O)(O3)C(=O)C(=O)N3CCCC[C@H]3C(=O)O2)CC[C@H]1O [Compound 41],fold loss in affinity (cf rapamycin),[1]; C7 rapalogs,1.3
same,IC50,[1]; C7 rapalogs,2.9 nM
CO[C@@H]1C[C@H](C[C@@H](C)[C@@H]2CC(=O)[C@H](C)/C=C(\C)[C@@H](O)[C@@H](OC)C(=O)[C@H](C)C[C@H](C)/C=C/C=C/C=C(\C)[C@@H](c3c[nH]c4ccccc34)C[C@@H]3CC[C@@H](C)[C@@](O)(O3)C(=O)C(=O)N3CCCC[C@H]3C(=O)O2)CC[C@H]1O [Compound 44],fold loss in affinity (cf rapamycin),[1]; C7 rapalogs,3.3
same,IC50,[1]; C7 rapalogs,7.8 nM
CO[C@@H]1C[C@H](C[C@@H](C)[C@@H]2CC(=O)[C@H](C)/C=C(\C)[C@@H](O)[C@@H](OC)C(=O)[C@H](C)C[C@H](C)/C=C/C=C/C=C(\C)[C@H](c3c[nH]c4ccccc34)C[C@@H]3CC[C@@H](C)[C@@](O)(O3)C(=O)C(=O)N3CCCC[C@H]3C(=O)O2)CC[C@H]1O [Compound 45],fold loss in affinity (cf rapamycin),[1]; C7 rapalogs,2.6
same,IC50,[1]; C7 rapalogs,5.9 nM
"CO[C@H]1C[C@@H]2CC[C@@H](C)[C@@](O)(O2)C(=O)C(=O)N2CCCC[C@H]2C(=O)O[C@H]([C@H](C)C[C@@H]2CC[C@@H](O)[C@H](OC)C2)CC(=O)[C@H](C)/C=C(\C)[C@@H](O)[C@@H](OC)C(=O)[C@H](C)C[C@H](C)/C=C/C=C/C=C/1C [rapamycin, Rapamycin]",survival of stably transfected cells,[2],potently reduced
same,production of hGH in mice,"[3]; 0.01-10.0 mg/kg intravenous, serum 17 hours after dosing",dose-responsive production of hGH
same,time after treatment at which serum hGH remained detectable,[3]; single 10.0 mg/kg dose,42 h
same,time at which serum hGH was observed,[3]; single 10.0 mg/kg dose,within four hours
same,time of peak serum hGH,[3]; single 10.0 mg/kg dose,eight hours
same,peak serum hGH level,"[3]; single 10.0 mg/kg dose, eight hours",over one hundred times the sensitivity limit of the hGH ELISA
same,predicted steady-state trough concentration of rapamycin,"[4]; 10.0 mg/kg at 16-hour intervals, after two doses",1.7 µg/mL
same,half-life,"[4]; nu/nu, mouse, in vivo, mice, intravenous",4.6 h
apamycin (E and Z)-24-(O-benzyloxime) [Compound 11],fold loss in affinity (vs rapamycin),[1],3627
same,IC50,[1],8340 nM
